“And” between values parts separate entries of the source, which are not always exact repeats. Equal entries are not always repeated. Toxic doses and inconclusive results are not listed.
System: B6C3F1 mice, intracerebral ependymoblastoma, median survival T/C
Experiment: NCI In Vivo Anticancer Drug Screen. Data for tumor model Ependymoblastoma (intracerebral) in B6C3F1 mice
Settings: endpoint: median survival time, higher = longer survival
Procedure: The antitumor activity of compounds was measured in mice bearing transplantable tumors. Survival or tumor size were measured and the results are expressed as the measurement made in the treated group (T) divided by the measurement made in the vehicle treated control group (C). The tumor model used in this assay is Ependymoblastoma (intracerebral) in B6C3F1 mice

## Cc1c2ccncc2c(C)c2c1[nH]c1ccccc12
dose: 128.0 mg/kg/injection, schedule: Q01DX001 (ip), vehicle: Klucel (hydroxypropylcellulose) (HPC)
  T/C: 112 % of control

## NC(CSC(c1ccccc1)(c1ccccc1)c1ccccc1)C(=O)O (configuration not stated)
dose: 32.0 mg/kg/injection, schedule: Q01DX005 (ip), vehicle: Klucel (hydroxypropylcellulose) (HPC)
  T/C: 107 % of control
dose: 64.0 mg/kg/injection, schedule: Q01DX005 (ip), vehicle: Klucel (hydroxypropylcellulose) (HPC)
  T/C: 107 % of control
dose: 512.0 mg/kg/injection, schedule: Q01DX001 (ip), vehicle: Klucel (hydroxypropylcellulose) (HPC)
  T/C: 108 % of control
dose: 516.0 mg/kg/injection, schedule: Q01DX001 (ip), vehicle: Klucel (hydroxypropylcellulose) (HPC)
  T/C: 86 % of control

## C1CCC2C[N-]CCC2C1.C1CCC2C[N-]CCC2C1.C1CCC2C[N-]CCC2C1.C1CCC2C[N-]CCC2C1.[Cl][Rh][Cl] (configuration not stated)
dose: 2.0 mg/kg/injection, schedule: Q01DX005 (ip), vehicle: dextrose
  T/C: 102 % of control
dose: 4.0 mg/kg/injection, schedule: Q01DX005 (ip), vehicle: dextrose
  T/C: 117 % of control

## ClC(Cl)=C(Cl)Cl
dose: 25.0 mg/kg/injection, schedule: Q01DX005 (ip), vehicle: other
  T/C: 110 % of control and 122 % of control
dose: 50.0 mg/kg/injection, schedule: Q01DX005 (ip), vehicle: other
  T/C: 100 % of control and 113 % of control
dose: 100.0 mg/kg/injection, schedule: Q01DX005 (ip), vehicle: other
  T/C: 101 % of control and 105 % of control
dose: 200.0 mg/kg/injection, schedule: Q01DX005 (ip), vehicle: other
  T/C: 93 % of control and 97 % of control

## C[n+]1c2ccccc2nc2c(N)cc(N)cc21
dose: 4.0 mg/kg/injection, schedule: Q01DX005 (ip), vehicle: saline
  T/C: 100 % of control and 101 % of control
dose: 8.0 mg/kg/injection, schedule: Q01DX005 (ip), vehicle: saline
  T/C: 101 % of control and 102 % of control
dose: 16.0 mg/kg/injection, schedule: Q01DX005 (ip), vehicle: saline
  T/C: 103 % of control and 108 % of control
dose: 32.0 mg/kg/injection, schedule: Q01DX005 (ip), vehicle: saline
  T/C: 103 % of control and 114 % of control

## CN(C)N=Nc1ccc(C(N)=O)cc1
dose: 16.0 mg/kg/injection, schedule: Q01DX005 (ip), vehicle: saline with Tween-80
  T/C: 156 % of control
dose: 32.0 mg/kg/injection, schedule: Q01DX005 (ip), vehicle: saline with Tween-80
  T/C: 162 % of control

## O=C1NC2(CCCCC2)C(=O)N1CCN(CCCl)CCCl
dose: 1.0 mg/kg/injection, schedule: Q01DX005 (ip), vehicle: Klucel (hydroxypropylcellulose) (HPC)
  T/C: 116 % of control
dose: 1.0 mg/kg/injection, schedule: Q01DX005 (ip), vehicle: saline
  T/C: 99 % of control and 103 % of control and 107 % of control
dose: 1.5 mg/kg/injection, schedule: Q01DX005 (ip), vehicle: Klucel (hydroxypropylcellulose) (HPC)
  T/C: 101 % of control
dose: 1.56 mg/kg/injection, schedule: Q01DX005 (ip), vehicle: Klucel (hydroxypropylcellulose) (HPC)
  T/C: 100 % of control
dose: 2.0 mg/kg/injection, schedule: Q01DX005 (ip), vehicle: Klucel (hydroxypropylcellulose) (HPC)
  T/C: 99 % of control
dose: 2.5 mg/kg/injection, schedule: Q01DX005 (ip), vehicle: other
  T/C: 97 % of control
dose: 2.5 mg/kg/injection, schedule: Q01DX005 (ip), vehicle: saline
  T/C: 100 % of control
dose: 3.0 mg/kg/injection, schedule: Q01DX005 (ip), vehicle: Klucel (hydroxypropylcellulose) (HPC)
  T/C: 110 % of control
dose: 3.12 mg/kg/injection, schedule: Q01DX005 (ip), vehicle: Klucel (hydroxypropylcellulose) (HPC)
  T/C: 101 % of control
dose: 4.0 mg/kg/injection, schedule: Q01DX005 (ip), vehicle: Klucel (hydroxypropylcellulose) (HPC)
  T/C: 117 % of control
dose: 5.0 mg/kg/injection, schedule: Q01DX005 (ip), vehicle: other
  T/C: 112 % of control
dose: 5.0 mg/kg/injection, schedule: Q01DX005 (ip), vehicle: saline
  T/C: 98 % of control
dose: 6.0 mg/kg/injection, schedule: Q01DX005 (ip), vehicle: Klucel (hydroxypropylcellulose) (HPC)
  T/C: 111 % of control
dose: 6.0 mg/kg/injection, schedule: Q01DX005 (oral), vehicle: Klucel (hydroxypropylcellulose) (HPC)
  T/C: 105 % of control and 88 % of control
dose: 6.25 mg/kg/injection, schedule: Q01DX005 (ip), vehicle: Klucel (hydroxypropylcellulose) (HPC)
  T/C: 105 % of control
dose: 8.0 mg/kg/injection, schedule: Q01DX005 (ip), vehicle: Klucel (hydroxypropylcellulose) (HPC)
  T/C: 112 % of control
dose: 10.0 mg/kg/injection, schedule: Q01DX005 (ip), vehicle: saline
  T/C: 98 % of control
dose: 12.0 mg/kg/injection, schedule: Q01DX005 (oral), vehicle: Klucel (hydroxypropylcellulose) (HPC)
  T/C: 87 % of control
dose: 24.0 mg/kg/injection, schedule: Q01DX005 (oral), vehicle: Klucel (hydroxypropylcellulose) (HPC)
  T/C: 92 % of control and 100 % of control
dose: 48.0 mg/kg/injection, schedule: Q01DX005 (oral), vehicle: Klucel (hydroxypropylcellulose) (HPC)
  T/C: 101 % of control
dose: 96.0 mg/kg/injection, schedule: Q01DX005 (oral), vehicle: Klucel (hydroxypropylcellulose) (HPC)
  T/C: 97 % of control

## Nc1n[nH]c(N)n1
dose: 128.0 mg/kg/injection, schedule: Q01DX005 (ip), vehicle: saline
  T/C: 93 % of control and 88 % of control
dose: 256.0 mg/kg/injection, schedule: Q01DX005 (ip), vehicle: saline
  T/C: 95 % of control and 100 % of control
dose: 512.0 mg/kg/injection, schedule: Q01DX005 (ip), vehicle: saline
  T/C: 92 % of control and 103 % of control
dose: 1024.0 mg/kg/injection, schedule: Q01DX005 (ip), vehicle: saline
  T/C: 118 % of control and 87 % of control

## [N-]=[N+]=CC(=O)CCC(N)C(=O)O (configuration not stated)
dose: 0.05 mg/kg/injection, schedule: Q01DX005 (ip), vehicle: saline
  T/C: 111 % of control
dose: 0.06 mg/kg/injection, schedule: Q01DX005 (ip), vehicle: saline
  T/C: 93 % of control and 117 % of control
dose: 0.1 mg/kg/injection, schedule: Q01DX005 (ip), vehicle: saline
  T/C: 97 % of control
dose: 0.12 mg/kg/injection, schedule: Q01DX005 (ip), vehicle: saline
  T/C: 111 % of control and 114 % of control
dose: 0.2 mg/kg/injection, schedule: Q01DX005 (ip), vehicle: saline
  T/C: 122 % of control

— PubChem BioAssay AID226 (DTP/NCI, 2004)
